Active and inactive are the calls of the source. The calls are words filed in the database; no cut-off is given here.
What was measured:
[1] = tested on: MCF7; assay: Induction of apoptosis in human MCF7 cells assessed as necrotic cells at 40 uM after 24 hrs by Annexin-V/PI staining based flow cytometry (reference value: 4.03%); type: functional
[2] = tested on: MCF7; assay: Induction of apoptosis in human MCF7 cells assessed as early apoptotic cells at 40 uM after 24 hrs by Annexin-V/PI staining based flow cytometry (reference value: 0.13%); type: functional
[3] = Octanol-water partition coefficient, log P of the compound at 10 mM after 24 hrs by UV-vis spectroscopic method; type: physicochemical
[4] = tested on: MCF7; assay: Induction of apoptosis in human MCF7 cells assessed as late apoptotic cells at 10 uM after 72 hrs by Annexin-V/PI staining based flow cytometry (reference value: 0.60%); type: functional
[5] = tested on: MCF7; assay: Cell cycle arrest in human MCF7 cells assessed as accumulation at G1 phase at 20 uM after 72 hrs by propidium iodide staining based flow cytometry (reference value: 66.42%); type: functional
[6] = tested on: MCF7; assay: Induction of apoptosis in human MCF7 cells assessed as live cells at 40 uM after 72 hrs by Annexin-V/PI staining based flow cytometry (reference value: 97.7%); type: functional
[7] = tested on: MCF7; assay: Induction of apoptosis in human MCF7 cells assessed as necrotic cells at 10 uM after 24 hrs by Annexin-V/PI staining based flow cytometry (reference value: 4.03%); type: functional
[8] = tested on: MCF7; assay: Induction of apoptosis in human MCF7 cells assessed as early apoptotic cells at 10 uM after 24 hrs by Annexin-V/PI staining based flow cytometry (reference value: 0.13%); type: functional
[9] = tested on: Quadruplex DNA; assay: Effect on conformation of c-Myc G-quadruplex DNA (unknown origin) at 1 mM measured every 3 mins by CD spectroscopic analysis; type: nucleic-acid assay
[10] = tested on: MCF7; assay: Cell cycle arrest in human MCF7 cells assessed as accumulation at S phase at 40 uM after 24 hrs by propidium iodide staining based flow cytometry (reference value: 23.16%); type: functional
[11] = tested on: MCF7; assay: Cell cycle arrest in human MCF7 cells assessed as accumulation at S phase at 20 uM after 72 hrs by propidium iodide staining based flow cytometry (reference value: 15.59%); type: functional
[12] = tested on: MCF7; assay: Cell cycle arrest in human MCF7 cells assessed as accumulation at sub-G1 phase at 10 to 40 uM after 24 to 72 hrs by propidium iodide staining based flow cytometry; type: functional
[13] = tested on: MCF7; assay: Induction of apoptosis in human MCF7 cells assessed as early apoptotic cells at 20 uM after 72 hrs by Annexin-V/PI staining based flow cytometry (reference value: 0.28%); type: functional
[14] = tested on: MCF7; assay: Induction of apoptosis in human MCF7 cells assessed as early apoptotic cells at 10 uM after 72 hrs by Annexin-V/PI staining based flow cytometry (reference value: 0.28%); type: functional
[15] = tested on: MCF7; assay: Induction of apoptosis in human MCF7 cells assessed as late apoptotic cells at 40 uM after 72 hrs by Annexin-V/PI staining based flow cytometry (reference value: 0.60%); type: functional
[16] = tested on: MCF7; assay: Cell cycle arrest in human MCF7 cells assessed as accumulation at S phase at 20 uM after 24 hrs by propidium iodide staining based flow cytometry (reference value: 23.16%); type: functional
[17] = tested on: MCF7; assay: Cell cycle arrest in human MCF7 cells assessed as accumulation at S phase at 10 uM after 24 hrs by propidium iodide staining based flow cytometry (reference value: 23.16%); type: functional
[18] = tested on: HepG2; assay: Cytotoxicity against human HepG2 cells assessed as reduction in cell viability after 72 hrs by MTT assay; type: functional, cell-based; conditions: HepG2, 72 h
[19] = tested on: MCF7; assay: Cell cycle arrest in human MCF7 cells assessed as accumulation at G2/M phase at 10 uM after 24 hrs by propidium iodide staining based flow cytometry (reference value: 6.91%); type: functional
[20] = tested on: MCF7; assay: Cell cycle arrest in human MCF7 cells assessed as accumulation at G2/M phase at 20 uM after 24 hrs by propidium iodide staining based flow cytometry (reference value: 6.91%); type: functional
[21] = tested on: MCF7; assay: Cell cycle arrest in human MCF7 cells assessed as accumulation at G2/M phase at 40 uM after 72 hrs by propidium iodide staining based flow cytometry (reference value: 17.99%); type: functional
[22] = tested on: MCF7; assay: Induction of apoptosis in human MCF7 cells assessed as early apoptotic cells at 40 uM after 72 hrs by Annexin-V/PI staining based flow cytometry (reference value: 0.28%); type: functional
[23] = tested on: MCF7; assay: Cell cycle arrest in human MCF7 cells assessed as accumulation at G1 phase at 40 uM after 24 hrs by propidium iodide staining based flow cytometry (reference value: 69.92%); type: functional
[24] = tested on: HaCaT; assay: Cytotoxicity against human HaCaT cells assessed as reduction in cell viability after 72 hrs by MTT assay; type: cell-based
[25] = tested on: MCF7; assay: Cell cycle arrest in human MCF7 cells assessed as accumulation at G2/M phase at 10 uM after 72 hrs by propidium iodide staining based flow cytometry (reference value: 17.99%); type: functional
[26] = tested on: MCF7; assay: Induction of apoptosis in human MCF7 cells assessed as late apoptotic cells at 20 uM after 24 hrs by Annexin-V/PI staining based flow cytometry (reference value: 0.96%); type: functional
[27] = tested on: MCF7; assay: Induction of apoptosis in human MCF7 cells assessed as necrotic cells at 20 uM after 72 hrs by Annexin-V/PI staining based flow cytometry (reference value: 1.36%); type: functional
[28] = tested on: Quadruplex DNA; assay: Stabilization of c-Myc G-quadruplex DNA in human MCF7 cells assessed as downregulation of c-Myc protein expression after 72 hrs by Western blot method; type: cell-based
[29] = tested on: MCF7; assay: Cell cycle arrest in human MCF7 cells assessed as accumulation at S phase at 10 uM after 72 hrs by propidium iodide staining based flow cytometry (reference value: 15.59%); type: functional
[30] = tested on: MCF7; assay: Induction of apoptosis in human MCF7 cells assessed as live cells at 20 uM after 72 hrs by Annexin-V/PI staining based flow cytometry (reference value: 97.7%); type: functional
[31] = tested on: MCF7; assay: Cytotoxicity against human MCF7 cells assessed as reduction in cell viability after 72 hrs by MTT assay; type: functional, cell-based; conditions: MCF7, 72 h
[32] = tested on: MCF7; assay: Induction of apoptosis in human MCF7 cells assessed as early apoptotic cells at 20 uM after 24 hrs by Annexin-V/PI staining based flow cytometry (reference value: 0.13%); type: functional
[33] = tested on: MCF7; assay: Induction of apoptosis in human MCF7 cells assessed as late apoptotic cells at 10 uM after 24 hrs by Annexin-V/PI staining based flow cytometry (reference value: 0.96%); type: functional
[34] = tested on: MCF7; assay: Induction of apoptosis in human MCF7 cells assessed as late apoptotic cells at 40 uM after 24 hrs by Annexin-V/PI staining based flow cytometry (reference value: 0.96%); type: functional
[35] = tested on: Quadruplex DNA; assay: Binding affinity to c-Myc G-quadruplex DNA (unknown origin) at 20 uM incubated for 2 mins by fluorescence emission spectra method; type: nucleic-acid assay
[36] = tested on: MCF7; assay: Induction of apoptosis in human MCF7 cells assessed as live cells at 20 uM after 24 hrs by Annexin-V/PI staining based flow cytometry (reference value: 94.88%); type: functional
[37] = tested on: MCF7; assay: Cell cycle arrest in human MCF7 cells assessed as accumulation at G2/M phase at 40 uM after 24 hrs by propidium iodide staining based flow cytometry (reference value: 6.91%); type: functional
[38] = tested on: MCF7; assay: Induction of apoptosis in human MCF7 cells assessed as necrotic cells at 10 uM after 72 hrs by Annexin-V/PI staining based flow cytometry (reference value: 1.36%); type: functional

SMILES: CC(=O)OC1OC(=O)C(Br)=C1Nc1ccc(-c2ccc(N)cc2)cc1 (stereo not drawn)
- Activity [1]: 0.14%
- Activity [2]: 4.08%
- logP at 24 h, 10000 µM [3]: 1.76
- Activity [4]: 0.67%
- Activity [5]: 61.38%
- Activity [6]: 93.39%
- Activity [7]: 2.82%
- Activity [8]: 0.16%
- Activity [9]: inactive
- Activity [10]: 26.45%
- Activity [11]: 15.18%
- Activity [12]: inactive
- Activity [13]: 0.55%
- Activity [14]: 0.32%
- Activity [15]: 1.19%
- Activity [16]: 21.11%
- Activity [17]: 23.95%
- IC50 [18]: 35.3 µM
- Activity [19]: 9.61%
- Activity [20]: 10.59%
- Activity [21]: 35.13%
- Activity [22]: 0.47%
- Activity [23]: 55.63%
- IC50 [24]: > 100 µM
- Activity [25]: 20.53%
- Activity [26]: 0.07%
- Activity [27]: 2.59%
- Activity [28]: Dose-dependent effect
- Activity [29]: 15.56%
- Activity [30]: 96.19%
- IC50 [31]: 11.8 µM
- Activity [32]: 0.13%
- Activity [33]: 0.13%
- Activity [34]: 0.5%
- Activity [35]: Active
- Activity [36]: 95.21%
- Activity [37]: 17.92%
- Activity [38]: 3.2%

Source: ChEMBL document CHEMBL4190316, “Synthesis and biological evaluation of 4-biphenylamino-5-halo-2(5H)-furanones as potential anticancer agents” (Eur J Med Chem, 2017)
